Laboratory results reported in publication PMC12607897, “Inhibition of HIV-1 replication by primer RNA packaging inhibitors” (mBio, 2025).

Assays:
mLysRS = mLysRS (Homo sapiens, UniProt Q15046); assay: tRNA aminoacylation assay; format: biochemical; settings: drug added up to 1 mM
Protocol: Initial rates of tRNA aminoacylation were measured at 25°C in 0.1 mL of 20 mM Imidazole-HCl buffer (pH 7.5), 100 mM KCl, 0.5 mM DTT, 12 mM MgCl2, 2 mM ATP, 180 µM ^14C-labeled lysine (NEN; 16.66 Ci/mol), and saturating amounts of global yeast tRNA ([30]). The incubation mixture contained catalytic amounts (2 nM) of mLysRS appropriately diluted in 10 mM Tris-HCl (pH 7.5), 10 mM 2-mercaptoethanol, containing bovine serum albumin at 4 mg/mL. Inhibitors were added at final concentrations ranging from 3.9 to 1,000 µM. One unit of activity is the amount of enzyme producing 1 nmol of lysine-tRNA^Lys/min, at 25°C.
Fig. S5. Effect of inhibitors on mLysRS activity. The tRNA-aminoacylation activity of mLysRS
was determined in the presence of increasing concentrations of the drugs. Two independent
experiments were performed and standard deviations are shown.
Fig. 6. Raw data of quantification of minus-strand strong stop viral DNA and viral RNA by
digital PCR from viruses recovered after 72 h incubation in the presence of 10 µM of the drugs.

[1] = tested on: HIV-1 NL4-3 virus particles; assay: digital PCR / RT-dPCR of minus-strand strong stop cDNA and viral RNA in particles; format: cell-based; settings: 10 µM drug, 72 and 96 h after infection
Description: We used digital RT-PCR and digital PCR to determine the viral mRNA and minus-strand strong stop viral cDNA content of the particles (Fig. 7; Fig. S6). The amount of early viral cDNA produced in the HIV-1 particles is a measure of the efficiency of the initiation step of reverse transcription, which requires the packaging of tRNA3^Lys at the budding step, the primer for cDNA synthesis.
Fig 7 Effect of drugs on viral synthesis of minus-strand strong stop cDNA. Viruses were harvested from the culture medium after 72 (red) or 96 h (blue) of infection of MT4 cells with NL4-3 viruses. Minus-strand strong stop viral DNA and viral RNA (vRNA) were quantified by digital PCR and RT-dPCR, respectively. Viruses were harvested from cultures grown in the presence of 10 µM of azelastine (Aze), lacidipine (Lac), or cilnidipine (Cil), or H2O or DMSO as controls. Values and the associated standard deviations (n = 3) are expressed as the ratios of the values obtained for the H2O or DMSO controls. […].
MT4 cells (2 × 10^6 cells) were infected with the NL4-3 viruses. After 4–5 h of infection at 37°C, cells were twice washed with PBS, incubated 5 min at 37°C in 0.25% trypsin-EDTA solution (Gibco) to eliminate viruses remaining in the medium, incubated 5 min at 37°C in complete RPMI medium, twice washed with PBS, resuspended in RPMI medium at a cell density of 200 × 10^3 cells/mL and incubated with 10 µM of azelastine (25 mM stock solution in H20), or lacidipine and cilnidipine (25 mM stock solution in DMSO). A second aliquot of the inhibitors was added to the culture medium 48 h after infection. […] All RNA and DNA quantifications were performed by digital PCR and RT-qPCR on a QIAcuity instrument (QIAGEN) using 26K 24-well nanoplates and the QIAcuity Probe PCR and One-Step Viral RT-PCR kits. Primers and probes were 5′-[…], 5′-[…], and 5′-[…] for the quantification of minus-strand strong-stop cDNA, and 5′-[…], 5′-[…], and 5′-[…] CGT for viral RNA quantification.

[2] = target: T1, mLysRS:IN interaction (human mLysRS, HIV-1 IN) (UniProt P12497+Q15046); assay: HTRF assay of mLysRS:IN interaction; format: binding, human / HIV-1; settings: HTRF; mLysRS 1.5 nM dimer, IN 25 nM dimer; read-out: half-maximal inhibitory concentration (IC50) in the mLysRS:IN assay
T1 construct: made in house
Protocol: Fig 1 Determination of the half-maximal inhibitory concentration (IC50) of the drugs in the mLysRS:IN binding assay. The binding of mLysRS to IN (red) or p38 (blue) was monitored in the HTRF assay in the presence of increasing drug concentrations (9–1,000 µM). The experimental values (symbols) were fitted (curves) to the equation Y = Ymin + {(Ymax − Ymin)/[1 + (X/IC50)^n]}, where n is the Hill coefficient. […] Proteins were isolated as described previously ([4]). Several batches of IN were used throughout this study. […] The molecules are dissolved in DMSO at a final concentration of 10 mM. After a 1 h incubation on ice, antibodies (Cisbio) directed to the His-tag and conjugated with Eu^3+ cryptate (Cisbio #61HISKLB) and the HA-tag conjugated with XL665 (Cisbio #610HAXLB) were added, and incubation was continued for 30 min. After the addition of 50 mM KF, fluorescence of Eu^3+ cryptate and of XL665 was recorded at 620 nm (I620) and 665 nm (I665), respectively, following excitation of Eu^3+ cryptate at 317 nm, in an Infinite M1000 PRO microplate reader (TECAN). The results were expressed as the ratio of I665/I620.

Chain of mLysRS (Q15046 31-625 isoform Q15046-2): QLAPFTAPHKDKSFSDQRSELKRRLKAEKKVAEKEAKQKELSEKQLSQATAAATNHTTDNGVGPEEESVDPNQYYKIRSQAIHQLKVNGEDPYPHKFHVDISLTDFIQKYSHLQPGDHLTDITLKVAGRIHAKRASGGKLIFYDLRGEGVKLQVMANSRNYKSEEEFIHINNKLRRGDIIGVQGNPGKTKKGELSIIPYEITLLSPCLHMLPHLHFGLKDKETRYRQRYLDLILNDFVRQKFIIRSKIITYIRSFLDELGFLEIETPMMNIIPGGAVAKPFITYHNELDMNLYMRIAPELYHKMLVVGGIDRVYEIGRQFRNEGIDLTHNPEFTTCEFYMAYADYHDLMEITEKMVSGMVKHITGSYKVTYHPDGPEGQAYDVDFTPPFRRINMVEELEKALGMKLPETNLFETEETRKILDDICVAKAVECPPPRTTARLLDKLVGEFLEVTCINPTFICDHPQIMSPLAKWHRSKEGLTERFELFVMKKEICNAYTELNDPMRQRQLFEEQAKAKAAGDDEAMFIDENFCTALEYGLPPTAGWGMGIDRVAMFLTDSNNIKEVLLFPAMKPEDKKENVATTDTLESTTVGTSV
T1 sequence (Q15046 other isoform, or with tags, fused parts or gaps, other chains not shown): as the sequence (Q15046 31-625 isoform Q15046-2) above

In the case of `CN1CCCC(n2nc(Cc3ccc(Cl)cc3)c3ccccc3c2=O)CC1` (stereo not drawn) [azelastine], the “inhibition of Lysyl-tRNA^Lys synthesis” value (mLysRS) is reported as “did not inhibit”, the “minus-strand strong stop cDNA in viruses, normalized to viral RNA” value [1] is reported as “significantly reduced” and the IC50 [2] is reported as 340 ± 50 µM.
